Data taken from a melting point compilation (Tetko et al.; mined from patent text by program, amines drawn as free bases though some values may be those of a salt).

| Compound | melting point |
| --- | --- |
| CCC(C(=O)c1ccc(NS(C)(=O)=O)cc1)c1ccccc1 (centres undefined) | 143 to 147 °C |
| CCOC(=O)c1ccc(OCc2ccccc2)c(OCc2ccccc2)c1 | 68 to 69 °C |
| CN1CCN(CCC#Cc2cc3c(Nc4ccc5[nH]ccc5c4)c(C#N)cnc3s2)CC1 | 195 to 197 °C |
| CN(C)Cc1ccc(CSCCNC(=C[N+](=O)[O-])NCCCN(C)CCN(Cc2ccc(F)cc2)c2ccccn2)o1 | 63 °C |
| COc1ccc(-n2nc(C(=O)CCCO[N+](=O)[O-])cc2-c2ccc(S(C)(=O)=O)cc2)cc1 | 132 to 134 °C |
| CN(C)Cc1ccc(CSCCNc2ncc(-c3ccccc3)c(=O)[nH]2)o1 | 116 to 118 °C |
| CC(=O)Nc1nc2c(s1)-c1nc(-c3ccccc3Cl)ncc1C2 | 257 °C |
| CN1C(=O)C(c2ccc(OC(F)F)cc2)(c2cccc(CCCCC#N)c2)N=C1N (centres undefined) | 65 °C |
| Cc1nc(C)c2cc(-c3c(Cl)cccc3Cl)c(N)nc2n1 | 239 to 240 °C |
| CCNC(=O)Nc1nc2cc(-c3cccnc3)cc(-c3nc(C)no3)n2n1 | 298 to 301 °C |
| Cc1nc(N2C(=O)N(Cc3ccc(C(F)(F)F)cc3)CC2O)sc1C(=O)NCc1cccnc1 (centres undefined) | 171 to 172 °C |
| Cc1cc(S(=O)(=O)NCC(C)C)c2c(C)ccc(C(C)C)cc1-2 | 117 to 118 °C |
| NCC(C(=O)O)C1CCCCC1 (centres undefined) | 238 to 240 °C |
| CC(SC1COC(c2ccc(C(=O)Nc3ccc(Cl)cc3)cc2)OC1)C(O)(Cn1cncn1)c1ccc(F)cc1F (centres undefined) | 210 °C |
| CC(C)(O)C(=O)Nc1ccc2oc3ccccc3c2c1 | 134 to 137 °C |
| CC(=O)c1ccc(C(=O)NC/C=C/c2ccccc2)cc1 | 120 °C |
| CCCOc1ccccc1-c1ccoc1C(=O)NNC(=O)c1ccc(O)c(C#N)c1 | 114 to 117 °C |
| O=C(O)C1COc2cc(Cl)c(Cl)cc2O1 (centres undefined) | 155 to 158 °C |
| S=c1[nH]ccn1OCc1cccnc1 | 128 to 129 °C |
| Cc1ccc(C)c(OCc2ccccc2CC#N)c1 | 51.5 to 53 °C |
| CN(C)C(=O)N(C)c1nc2cc(C(C)(C)C)ccc2s1 | 107 to 108 °C |

| Compound | melting point |
| --- | --- |
| CCN(CC)CCCCC1CCN(CCNC(=O)N2c3ccccc3C(=O)Nc3cccnc32)CC1 | 167 °C |
| CCn1c(=O)n(O)c(=O)c2c(F)c(F)c(N3CCCC3)c(F)c21 | 223 to 225 °C |
| Cc1sc2c(c1C)C(c1ccc(Cl)cc1)=NC(CC(=O)N1CCOCC1)c1nnc(C)n1-2 (centres undefined) | 252 to 254 °C |
| CC1CNc2c(ccc(NC3=NCCN3)c2Br)N1 (single isomer, unassigned; (+)) | 203 to 205 °C |
| CC1(C)CCC(=Cc2ccc(Cl)cc2)C(=O)C1 | 85 to 86 °C |
| O=C1c2ccccc2C(=O)N1CCCN1CCN(c2ccccc2)CC1 | 105 to 122 °C |
| O=C1CC(c2cccc(-c3nc(CO)cs3)c2)=Nc2ccc(-n3cccc3)cc2N1 | 238 to 240 °C |
| CCN(CC)Cc1cnc(-c2ncn3c2CN(C)C(=O)c2cc(F)ccc2-3)o1 | 182 to 184 °C |
| COc1cc(COc2ncccc2CC#N)ccc1OCc1nc(-c2ccccc2)oc1C | 108 to 109 °C |
| OC[C@H](O)CSc1ccccc1 | 79 to 81 °C |
| O=C(Nc1cccnn1)N1CCN(c2nccc(-c3cccc(F)c3F)n2)CC1 | 248 to 249 °C |
| CC(C)Oc1cc(CCC(=O)NS(=O)(=O)C2CCCCC2)n(Cc2ccc(Cl)cc2Cl)n1 | 137 to 138 °C |
| CCCc1c(O)cccc1Oc1cc(F)ccc1C(=O)OC | 92 to 94 °C |
| Cc1ccc(-c2nc(CCl)c(C)o2)cc1 | 91 to 93 °C |
| COC(=O)c1nccnc1Nc1ccc(Cl)cc1 | 135 to 136 °C |
| CCOC(Cc1ccc(OCc2nc3ccc(OC)cc3n2C)cc1)C(=O)OC (centres undefined) | 88 to 92 °C |
| CSc1nnc(-c2ccc3occ(-c4ccccc4Cl)c3c2)o1 | 137 to 138 °C |
| CC(C(=O)OC1(C)CCCCC1)c1ccc(N)cc1 (centres undefined) | 85 to 87 °C |
| CC(C)c1cccc(C(C)C)c1NC(=O)CN[C@H](C)c1ccccc1 | 119 to 120 °C |
| Cc1ccc(C2C=C3C(=CCC4=C3NN(C)CC4)S2=O)cc1 (centres undefined) | 160 to 162 °C |
| Fc1cc2nc3c(cnn3-c3ccccn3)c(Cl)c2cc1F | 167 to 168 °C |

| Compound | melting point |
| --- | --- |
| Cc1cc(C)n(-c2nc(Nc3ccc(I)cc3)c3ccccc3n2)n1 | 226 to 229 °C |
| CC1(C)C(C=C(Cl)Cl)C1C(=O)OC(c1cccc(Oc2ccc(F)cc2)n1)C(F)(F)F (centres undefined) | 69 to 72 °C |
| Cc1cccc(C2(c3ccc(F)c(-c4ccc(NC(=O)NN5CCOCC5)cc4)c3)CNC(C(C)C)=N2)n1 (centres undefined) | 141 to 143 °C |
| CCn1cc(C(=O)Nc2nccs2)c2ccc(Cl)cc21 | 234 to 236 °C |
| CCOC(=O)NNc1n[nH]c2cc(Cl)ccc12 | 210 to 211 °C |
| CN1CCC(N(Cc2cccn2C)S(=O)(=O)c2ccc(Nc3nccc(Nc4ccc(F)cc4)n3)cc2)CC1 | 129 °C |
| COc1ccc(Cn2c(C(C)C)c(C(=O)c3cccnc3)c3ccccc32)cc1 | 190 °C |
| Cn1cc(N2C=CN=CC2)ccc1=O | 166 °C |
| COC(=O)c1cc2c(NC3CCC(O)CC3)nc(-c3ccccc3)nc2[nH]1 (centres undefined) | 225 to 227 °C |
| Fc1ccc(Oc2ccc3nc(Cl)ncc3c2)c(F)c1 | 110 to 113 °C |
| O=C(c1ccc(F)cc1F)C1CCN(CC2=Cc3ccccc32)CC1 | 70 °C |
| O=C(NO)c1cccnc1Cl | 179 °C |
| CCN1C(=O)C(C)(C)C(=O)N(C)c2cc(OCCCN3C(=O)C(c4ccccc4)Cc4ccccc43)ccc21 (centres undefined) | 100 to 105 °C |
| O=C(NCCc1cccs1)c1cc(Cl)cc(Cl)c1 | 100 to 102 °C |
| O=Cc1cccn2c(Br)cnc12 | 104 to 106 °C |
| CCCc1c(OCCCCCOc2ccc(OCCCC(=O)O)cc2CCC(=O)O)ccc2c1OCCC2=O | 119 to 124 °C |
| Cc1c(/C=C2\COc3ccccc3C2=O)ncn1C(c1ccccc1)(c1ccccc1)c1ccccc1 | 231 to 233 °C |
| CN(C)C1(c2cccc(F)c2)CC=C(c2[nH]c3ccccc3c2CCc2ccncc2)CC1 (centres undefined) | 194 to 198 °C |
| O=C(Nc1ccc(-n2nc(C3CC3)cc2C2CC2)cc1)c1ccc2nn[nH]c2c1 | 240 to 246 °C |

Further lines, results first:

| melting point | Compound |
| --- | --- |
| 152 to 154 °C | O=C(NC1CCCc2sccc21)N1CCOCC1 (centres undefined) |
| 73 to 75 °C | CCOc1ccc(C2=NN(CCCCBr)C(=O)[C@H]3CC=CC[C@@H]23)cc1OCC (relative stereo) |
| 167 to 169 °C | COc1cc(C)c2c(c1OC)CCC1C(=O)N(C)C(=O)C21 (centres undefined) |
| 83 to 84 °C | CCN(CC)C(=O)n1cc(Br)c(S(=O)(=O)c2cc(C)ccc2C)n1 |
| 226 to 228 °C | COc1cccc2c1OCC(/C=C/C=C/C=C/C(=O)O)=C2 |
| 123 to 124 °C | C[Si](C)(C)c1ccc(N)cc1 |
| 154 to 156 °C | CCC1=C(c2ccccc2)C(c2ccccc2)=C(CC)C1=C(C#N)C#N |
| 110 to 118 °C | CCN(CC)c1ccc(/C=C/C(=O)CC(=O)/C=C/c2ccc3cc[nH]c3c2)cc1 |
| 182 to 183 °C | O=CNC1=NN(c2ccccn2)CC1 |
| 89.5 to 90 °C | CC1C(=O)OC2COCC21 (centres undefined) |
| 118 °C | CC(C)(C)OC(=O)COC(=O)CCc1c(OCC(=O)OC(C)(C)C)ccc2ccc(OCC(=O)OC(C)(C)C)cc12 |
| 179 to 183 °C | COc1ccccc1[C@@H]1O[C@@H](CC(=O)O)C(=O)N(CC(C)(C)C)c2ccc(Cl)cc21 |
| 333 to 336 °C | C[C@@H](Nc1ncnc2[nH]c(-c3ccc(C#N)cc3)cc12)c1ccccc1 |
| 281 to 283 °C | CC1(C)CC2(NC(=O)NC2=O)c2cc(Cl)ccc2O1 (centres undefined) |
| 163 to 165 °C | N#Cc1cccc(C2C(=O)N(Cc3ccccc3)Cc3cncn32)c1 (centres undefined) |
| 239 to 241 °C | Cc1ccc(C(=O)NC2CC2)cc1-c1cc2cnc(NC3CCOCC3)nc2n(C)c1=O |
| 179 °C | COC(=O)c1ccc2cc(C(=O)c3cc(OCc4ccc(F)cc4)c4c(c3)C(C)(C)CCC4(C)C)ccc2c1 |
| 220 to 221 °C | CCCNC(=O)Cn1c(-c2ccc(Cl)cc2)nc2cccnc21 |
| 164 to 166 °C | Cc1cccc(C)c1NC(=O)c1ccc(S(C)(=O)=O)cc1 |

| melting point | Compound |
| --- | --- |
| 157 to 158 °C | Cc1cc(SCc2sc(-c3ccc(C(F)(F)F)cc3)nc2C)cc(C)c1OCC(=O)O |
| 196 to 197 °C | Cc1cccc(C(=O)Nc2c[nH]nc2C(=O)NCCCO)n1 |
| 80.5 to 81 °C | COC(=O)C1(C(=O)OC)CCC1(C(=O)OC)C(=O)OC |
| 186 to 188 °C | CC(C)c1cccc(C(C)C)c1NC(=O)C1c2ccccc2COc2ccc([N+](=O)[O-])cc21 (centres undefined) |
| 228 °C | O=C(Nc1ccc(N2CCOCC2=O)cc1)[C@H]1CCCN1C(=O)Nc1ccc(Cl)cc1 |
| 97 to 98 °C | CN(C)C1CCC(Nc2ncnc3sc4c(c23)CCC4)CC1 (centres undefined) |
| 155 to 158 °C | CNc1ccc2c(c1)nc(CCc1ccc(C#N)cc1)n2C |
| 145 to 147 °C | CS(=O)(=O)Nn1c(=O)[nH]c2cc(C(F)(F)F)c(-c3ccc(C#N)cc3)cc2c1=O |
| 76 to 80 °C | CCCCCc1c(-c2ccc3cc(OC)ccc3c2)n(Cc2ccccc2)c2ccccc12 |
| 176 °C | CCOC(=O)N1CCC(C(=O)O)=Cc2ccccc21 |
| 166 to 167 °C | Cc1cc(NC(=O)COc2ccccc2)cc(C)c1S(=O)(=O)C[N+](=O)[O-] |
| 219 °C | CCOC(=O)C1=C(N)NC(N)=C(C(=O)OCC)C1c1c(OC)ncnc1OC |
| 178 to 180 °C | Cc1cc2c(-c3cccc(-c4noc(=S)[nH]4)c3)c(CC(=O)Nc3ccc(F)cc3C(F)(F)F)c(=O)oc2cc1Cl |
| 140 °C | O=[N+]([O-])c1cccc(Cc2nnn[nH]2)c1 |
| 188 to 190 °C | COc1cc(C(=O)N2CCN(C(=O)OC(C)(C)C)C(C(=O)O)C2)cc(OC)c1OC (centres undefined) |
| 117 to 118 °C | CCOC(=O)c1cccc(Oc2ncccc2O)c1 |
| 114 to 117 °C | Clc1nc(N2CCCCC2)c2ncnc(Cl)c2n1 |
| 148 to 149 °C | Fc1ccc2c(CN3CCN(CCc4ccccc4)CC3)n[nH]c2c1 |
| 153 °C | C=C(C)C(=O)OC1=CC(O)(C(C)=O)C(C(=O)O)C=C1 (centres undefined) |
